≈ marks a conversion by molar mass, not a printed value.
What was measured:
Candida albicans 73/079 = assay: Minimum Inhibitory Concentration (MIC) by broth dilution in microtitre tray; type: cell-based; settings: inoculum 10^5 cells/ml, 37° C.
Experimental: (§1) The Minimum Inhibitory Concentration (MIC) was determined by diluting the test compound in a broth medium in a microtitre tray. The organisms, which had been grown previously in a broth medium, were diluted and added to the wells to provide a final inoculum of approximately 10^5 colony-formingunits per well. The trays were incubated at 37° C. and the turbidity of each well noted at intervals. The MIC was taken as the lowest concentration (in μg/ml) which prevented significant growth. |Minimum Inhibitory Concentration (μg/ml) |(determined after 2 and 3 days incubation) | *Inoculum 10^5 cells/ml | YNB: Yeast Nitrogen Base Broth | SAB: Sabouraud's Dextrose Broth.

[1] = tested on: Candida parapsilosis 937 A; assay: as above; type: cell-based; settings: inoculum 10^5 cells/ml, 37° C.
Experimental: as §1

[2] = 48 h, day 2, YNB (Yeast Nitrogen Base Broth)
[3] = 72 h, day 3, YNB (Yeast Nitrogen Base Broth)

MIC (Candida albicans 73/079; [2]): 1 µg/mL (≈ 1.1 µM)
MIC (Candida albicans 73/079; [3]): 2 µg/mL (≈ 2.2 µM)
MIC (Candida albicans 73/079; Candida albicans, 73/079, 48 h, day 2, SAB (Sabouraud's Dextrose Broth)): 1 µg/mL (≈ 1.1 µM)
MIC (Candida albicans 73/079; Candida albicans, 73/079, 72 h, day 3, SAB (Sabouraud's Dextrose Broth)): 1 µg/mL (≈ 1.1 µM)
MIC ([1]; 937A, 48 h, day 2, SAB (Sabouraud's Dextrose Broth)): 1 µg/mL (≈ 1.1 µM)
MIC ([1]; 937A, 72 h, day 3, SAB (Sabouraud's Dextrose Broth)): 2 µg/mL (≈ 2.2 µM)
MIC [1, 2]: 8 µg/mL (≈ 8.79 µM)
MIC [1, 3]: 8 µg/mL (≈ 8.79 µM)
SMILES: C[C@@H]1[C@H](O)[C@@H](C)/C=C/C=C/C=C/C=C/C=C/C=C/C=C/[C@H](O[C@@H]2O[C@H](C)[C@@H](O)[C@H](N)[C@@H]2O)C[C@@H]2O[C@](O)(C[C@@H](O)C[C@@H](O)[C@H](O)CC[C@@H](O)C[C@@H](O)CC(=O)O[C@H]1C)C[C@H](O)[C@H]2CO [Example 4, 16-Decarboxy-16-hydroxymethylamohotericin B]

Source: US5100876A, “16-decarboxy-16-hydroxy derivatives of amphotericin B” (Beecham Group p.l.c., priority 1988, dated 1992)
